Test results published in ChEMBL document CHEMBL2203233, “Structure-activity relationship exploration of Kv1.3 blockers based on diphenoxylate” (Bioorg Med Chem Lett, 2012).

Key:
[1] = target: Potassium voltage-gated channel subfamily A member 3 (Homo sapiens, UniProt P22001); test: Inhibition of Kv1.3 expressed in mouse L929 cells exposed to depolarizing step pulses from -80 mV to +40 mV by whole cell patch clamp method; format: cell-based
[2] = Lipophilicity, logP of the compound; format: physicochemical; settings: octanol/water

Sequence of Potassium voltage-gated channel subfamily A member 3 (P22001 whole entry): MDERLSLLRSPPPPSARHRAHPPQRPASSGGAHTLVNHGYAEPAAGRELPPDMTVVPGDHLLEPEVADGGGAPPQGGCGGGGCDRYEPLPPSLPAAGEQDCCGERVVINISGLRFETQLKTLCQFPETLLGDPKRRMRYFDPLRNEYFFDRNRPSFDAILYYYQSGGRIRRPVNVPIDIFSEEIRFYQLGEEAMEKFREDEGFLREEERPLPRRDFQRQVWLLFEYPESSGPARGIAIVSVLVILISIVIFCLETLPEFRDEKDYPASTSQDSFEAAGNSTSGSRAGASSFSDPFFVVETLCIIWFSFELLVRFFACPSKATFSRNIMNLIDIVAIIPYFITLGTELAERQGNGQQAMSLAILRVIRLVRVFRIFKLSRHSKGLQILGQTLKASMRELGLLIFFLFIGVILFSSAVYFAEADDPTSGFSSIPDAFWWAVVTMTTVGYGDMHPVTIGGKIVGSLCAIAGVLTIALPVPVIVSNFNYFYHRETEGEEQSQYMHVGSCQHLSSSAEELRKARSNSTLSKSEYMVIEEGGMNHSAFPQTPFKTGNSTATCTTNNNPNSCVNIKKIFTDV

SMILES	IC50 [1]	logP [2]
N#CC(CCN1CCC(O)CC1)(c1ccccc1)c1ccccc1	0.75 µM	
CCOC(=O)C1(c2ccccc2)CCN(CCC(C#N)(c2ccccc2)c2ccccc2)CC1 [DIPHENOXYLATE]	5 µM	
CCOC(=O)C1(c2ccccc2)CCN(CCC(c2ccccc2)c2ccccc2)CC1	0.9 µM	
N#CC(CCN1CCC(N)CC1)(c1ccccc1)c1ccccc1	> 100 µM	
COC1CCN(CCC(C#N)(c2ccccc2)c2ccccc2)CC1	> 100 µM	
CCOC(=O)C1(c2ccccc2)CCN(CCCc2ccccc2)CC1	0.8 µM	
N#CC(CCN1CCCC(O)C1)(c1ccccc1)c1ccccc1 (stereo not given)	> 100 µM	
CC(C)(C)OC(=O)NC1CCN(CCC(C#N)(c2ccccc2)c2ccccc2)CC1	25 µM	
CCOC(=O)C1CCN(CCC(C#N)(c2ccccc2)c2ccccc2)CC1	230 µM	
N#CC(CCN1CC=C(c2ccccc2)CC1)(c1ccccc1)c1ccccc1	4.2 µM	
OC1CCN(CCC(c2ccccc2)c2ccccc2)CC1	75 µM	
COC(=O)C1(c2ccccc2)CCN(CCC(C#N)(c2ccccc2)c2ccccc2)CC1	2.52 µM	
N#CC(CCN1CCN(Cc2ccccc2)CC1)(c1ccccc1)c1ccccc1	1.27 µM	
CC1CCN(CCC(C#N)(c2ccccc2)c2ccccc2)CC1	5.8 µM	
N#CC(CCN1CCC(c2ccccc2)CC1)(c1ccccc1)c1ccccc1	2.61 µM	
N#CC(CCN1CCN(c2ccccc2)CC1)(c1ccccc1)c1ccccc1	1.86 µM	
N#CC(CCN1CCCCC1)(c1ccccc1)c1ccccc1	20.5 µM	
OC1CCN(CCCc2ccccc2)CC1	> 100 µM	
N#CC(CCN1CCC(O)(c2ccccc2)CC1)(c1ccccc1)c1ccccc1	1.7 µM	
O=c1ccc2c(OCCCCOc3ccccc3)c3ccoc3cc2o1		4.03
